According to ChEMBL document CHEMBL1201862, “PubChem BioAssay data set” (2004):
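Cells were grown in 96-well plates and exposed to each compound for 48 hours at five concentrations; endpoints were interpolated linearly between bracketing concentrations, or set to the highest concentration if not reached. The concentration for 50% growth inhibition is given as GI50.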 Calls of active or inactive are those of the source. Rule as the data show it: active = GI50 up to about 1.1 µM and inactive = higher.

Legend:
Assay in all cases: NCI-60 cell line screen, 48 h
[1] = tested on: A498
[2] = tested on: CAKI-1
[3] = tested on: CCRF-CEM
[4] = tested on: HCC 2998
[5] = tested on: HOP-62
[6] = tested on: KM12
[7] = tested on: LOX IMVI
[8] = tested on: NCI-H226
[9] = tested on: OVCAR-4
[10] = tested on: SF-295
[11] = tested on: SK-MEL-28
[12] = tested on: SK-OV-3
[13] = tested on: SNB-75
[14] = tested on: SR
[15] = tested on: SW-620
[16] = tested on: UACC-257
[17] = tested on: UACC-62
[18] = tested on: UO-31

Compound	GI50 [1]	GI50 [2]	GI50 [3]	GI50 [4]	GI50 [5]	GI50 [6]	GI50 [7]	GI50 [8]	GI50 [9]	GI50 [10]	GI50 [11]	GI50 [12]	GI50 [13]	GI50 [14]	GI50 [15]	GI50 [16]	GI50 [17]	GI50 [18]
O=CC(O)C(O)C(O)COc1cc(CO)cc2c1C(=O)c1ccccc1C2=O (stereo not drawn)	> 100 µM (inactive)	> 93.8 µM (inactive)	> 100 µM (inactive)	> 100 µM (inactive)	> 100 µM (inactive)	> 100 µM (inactive)	99.1 µM (inactive)	> 100 µM (inactive)	> 94.2 µM (inactive)	> 100 µM (inactive)	> 100 µM (inactive)	> 100 µM (inactive)	> 100 µM (inactive)	> 88.3 µM (inactive)	> 100 µM (inactive)	> 100 µM (inactive)	> 95.1 µM (inactive)	> 100 µM (inactive)
Cc1noc(C)c1C1=CCCCc2ccccc21	–	–	78.9 µM (inactive)	> 100 µM (inactive)	> 100 µM (inactive)	> 100 µM (inactive)	–	–	> 100 µM (inactive)	> 100 µM (inactive)	> 100 µM (inactive)	> 100 µM (inactive)	23.4 µM (inactive)	16.6 µM (inactive)	> 100 µM (inactive)	> 100 µM (inactive)	64.3 µM (inactive)	> 100 µM (inactive)
CCOC(=O)C1Oc2ccc([N+](=O)[O-])cc2C1(C)O (stereo not drawn)	> 100 µM (inactive)	–	> 100 µM (inactive)	> 100 µM (inactive)	> 100 µM (inactive)	> 100 µM (inactive)	> 100 µM (inactive)	> 100 µM (inactive)	> 100 µM (inactive)	> 100 µM (inactive)	> 100 µM (inactive)	> 100 µM (inactive)	> 100 µM (inactive)	> 100 µM (inactive)	> 100 µM (inactive)	> 100 µM (inactive)	> 100 µM (inactive)	> 100 µM (inactive)
CN(C)C(=N)NC(N)=S	> 100 µM (inactive)	> 100 µM (inactive)	–	> 100 µM (inactive)	> 100 µM (inactive)	> 100 µM (inactive)	> 100 µM (inactive)	> 100 µM (inactive)	> 100 µM (inactive)	> 100 µM (inactive)	> 100 µM (inactive)	> 100 µM (inactive)	> 100 µM (inactive)	> 100 µM (inactive)	> 100 µM (inactive)	> 100 µM (inactive)	> 100 µM (inactive)	> 100 µM (inactive)
COc1cc2c(c(OC)c1OC)-c1ccc(SC)c(=O)cc1C(CO)C2 (stereo not drawn)	0.107 µM (active)	0.634 µM (active)	0.0891 µM (active)	0.185 µM (active)	0.233 µM (active)	0.0813 µM (active)	0.22 µM (active)	0.279 µM (active)	0.769 µM (active)	0.175 µM (active)	0.0735 µM (active)	0.109 µM (active)	0.0326 µM (active)	0.0203 µM (active)	0.167 µM (active)	0.0578 µM (active)	0.0414 µM (active)	0.455 µM (active)
Nc1nc(SCc2ccc([N+](=O)[O-])cc2)nc2c1ncn2C1OC(CO)C(O)C1O (stereo not drawn)	> 100 µM (inactive)	–	> 100 µM (inactive)	> 100 µM (inactive)	> 100 µM (inactive)	> 100 µM (inactive)	> 100 µM (inactive)	> 100 µM (inactive)	> 100 µM (inactive)	> 100 µM (inactive)	> 100 µM (inactive)	–	–	> 100 µM (inactive)	> 100 µM (inactive)	> 100 µM (inactive)	–	> 100 µM (inactive)
O=S1(=O)c2ccccc2N=C(c2ccccc2Cl)CC1c1ccc(F)cc1 (stereo not drawn)	17.5 µM (inactive)	14.4 µM (inactive)	14.1 µM (inactive)	14.2 µM (inactive)	> 10 µM (inactive)	16.5 µM (inactive)	16.7 µM (inactive)	–	18.4 µM (inactive)	18.2 µM (inactive)	18.2 µM (inactive)	43.2 µM (inactive)	25.5 µM (inactive)	–	13.4 µM (inactive)	11.9 µM (inactive)	15.8 µM (inactive)	15.2 µM (inactive)
CC(=O)OCC1OC(n2c(=S)n(-c3ccccc3)c(=O)c3cc(Br)ccc32)C(OC(C)=O)C(OC(C)=O)C1OC(C)=O (stereo not drawn)	> 100 µM (inactive)	> 100 µM (inactive)	> 100 µM (inactive)	> 100 µM (inactive)	> 100 µM (inactive)	> 100 µM (inactive)	> 100 µM (inactive)	> 100 µM (inactive)	–	–	> 100 µM (inactive)	> 100 µM (inactive)	–	–	> 100 µM (inactive)	> 100 µM (inactive)	> 100 µM (inactive)	> 100 µM (inactive)
O=c1[nH]c2c(nc1NC13CC4CC(CC(C4)C1)C3)c(=O)oc1ccccc12	–	2.46 µM (inactive)	> 100 µM (inactive)	> 100 µM (inactive)	50.1 µM (inactive)	> 100 µM (inactive)	31.6 µM (inactive)	27.9 µM (inactive)	–	–	> 100 µM (inactive)	> 100 µM (inactive)	29.5 µM (inactive)	> 100 µM (inactive)	> 100 µM (inactive)	> 100 µM (inactive)	> 100 µM (inactive)	> 100 µM (inactive)
CCOC(OC1=C(C#N)CCC1)C(CC)[Se]c1ccccc1 (stereo not drawn)	80.4 µM (inactive)	41 µM (inactive)	15.6 µM (inactive)	13.6 µM (inactive)	> 100 µM (inactive)	64.4 µM (inactive)	4.5 µM (inactive)	19.2 µM (inactive)	16.1 µM (inactive)	16.6 µM (inactive)	40.9 µM (inactive)	> 100 µM (inactive)	24.2 µM (inactive)	7.19 µM (inactive)	–	80.9 µM (inactive)	19 µM (inactive)	24.2 µM (inactive)
CCOC(=O)C(=O)C1C(=O)Nc2ccccc21 (stereo not drawn)	> 100 µM (inactive)	> 100 µM (inactive)	> 100 µM (inactive)	> 100 µM (inactive)	> 100 µM (inactive)	> 100 µM (inactive)	> 100 µM (inactive)	> 100 µM (inactive)	> 100 µM (inactive)	> 100 µM (inactive)	> 100 µM (inactive)	–	> 100 µM (inactive)	–	> 100 µM (inactive)	> 100 µM (inactive)	> 100 µM (inactive)	> 100 µM (inactive)
Cc1ccc(S(=O)(=O)NNS(C)(=O)=O)cc1	–	> 100 µM (inactive)	> 100 µM (inactive)	> 100 µM (inactive)	> 100 µM (inactive)	> 100 µM (inactive)	> 100 µM (inactive)	–	> 100 µM (inactive)	> 100 µM (inactive)	–	–	> 100 µM (inactive)	> 100 µM (inactive)	> 100 µM (inactive)	> 100 µM (inactive)	> 100 µM (inactive)	> 100 µM (inactive)
CCCCCn1cnc2c1S(=O)(=O)N(C)C(NC(=O)c1ccccc1)=N2	> 100 µM (inactive)	> 100 µM (inactive)	> 100 µM (inactive)	> 100 µM (inactive)	> 100 µM (inactive)	> 100 µM (inactive)	> 100 µM (inactive)	> 100 µM (inactive)	> 100 µM (inactive)	> 100 µM (inactive)	> 100 µM (inactive)	> 100 µM (inactive)	> 100 µM (inactive)	> 100 µM (inactive)	> 100 µM (inactive)	> 100 µM (inactive)	> 100 µM (inactive)	> 100 µM (inactive)
COc1ccc(N2C(=O)c3c(c4[nH]c5ccccc5c4c4ccc(C(C)(C)C)cc34)C2=O)cc1	40.5 µM (inactive)	42 µM (inactive)	21.3 µM (inactive)	> 100 µM (inactive)	42.8 µM (inactive)	64.9 µM (inactive)	> 100 µM (inactive)	35.8 µM (inactive)	20.3 µM (inactive)	31.8 µM (inactive)	89.1 µM (inactive)	42.1 µM (inactive)	16.6 µM (inactive)	21.2 µM (inactive)	61.8 µM (inactive)	> 100 µM (inactive)	20.1 µM (inactive)	97.1 µM (inactive)
C=CCOC1=C2CC[C@H](O)[C@@]2(C)CCC1=O	> 100 µM (inactive)	> 100 µM (inactive)	> 100 µM (inactive)	> 100 µM (inactive)	> 100 µM (inactive)	> 100 µM (inactive)	> 100 µM (inactive)	> 100 µM (inactive)	> 100 µM (inactive)	> 100 µM (inactive)	> 100 µM (inactive)	> 100 µM (inactive)	> 100 µM (inactive)	> 100 µM (inactive)	> 100 µM (inactive)	> 100 µM (inactive)	> 100 µM (inactive)	> 100 µM (inactive)
CC1=Nn2c(nnc2-c2ccccc2Cl)NC(C)(C)C1	–	> 100 µM (inactive)	34.2 µM (inactive)	> 100 µM (inactive)	> 100 µM (inactive)	> 100 µM (inactive)	> 100 µM (inactive)	> 100 µM (inactive)	> 100 µM (inactive)	> 100 µM (inactive)	> 100 µM (inactive)	> 100 µM (inactive)	> 100 µM (inactive)	25.5 µM (inactive)	6.25 µM (inactive)	–	> 100 µM (inactive)	> 100 µM (inactive)
C/C(=N\NC(=O)c1ccccc1O)C1=CNc2ccccc2S1	3.8 µM (inactive)	6.38 µM (inactive)	3.35 µM (inactive)	2.98 µM (inactive)	4.59 µM (inactive)	3.94 µM (inactive)	3.3 µM (inactive)	4.35 µM (inactive)	5.85 µM (inactive)	4.01 µM (inactive)	9.48 µM (inactive)	15.6 µM (inactive)	8.2 µM (inactive)	3.82 µM (inactive)	3.65 µM (inactive)	3.1 µM (inactive)	2.44 µM (inactive)	2.14 µM (inactive)
